In patent publication US20240083857A1, “2-Methyl-Quinazolines” (Bayer Pharma Aktiengesellschaft, priority 2017, published 2024):

How the values were obtained:
[1] = molecular target: human SOS1 (loading of human K-Ras^G12C-GDP with fluorescent GTP-analog) (Homo sapiens, UniProt Q07889); test: Biochemical assay 3: K-Ras^G12C activation assay by hSOS1 (HTRF); details: no GTP; for IC50: read-out: Assay 3 (KRAS-Activation by SOS no GTP) activity expressed as IC50; for inhibition at 20 µM: read-out: Assay 3 (KRAS-Activation by SOS no GTP) activity expressed as % inhibition at 20 μM
[2] = molecular target: human SOS1 (nucleotide exchange of K-Ras^G12C) (Homo sapiens, UniProt Q07889); test: Biochemical assay 2: K-Ras^G12C activation assay by hSOS1 at high GTP concentration (HTRF); details: high GTP; for IC50: read-out: Assay 2 (KRAS-Activation by SOS high GTP) activity expressed as IC50; for inhibition at 20 µM: read-out: Assay 2 (KRAS-Activation by SOS high GTP) activity expressed as % inhibition at 20 μM
[3] = molecular target: K-Ras^G12C : hSOS1 interaction (Homo sapiens, UniProt Q07889); test: Biochemical assay 1: K-Ras^G12C interaction assay with hSOS1 (HTRF); format: binding; details: for IC50: read-out: Assay 1 (KRAS-SOS Interaction) activity expressed as IC50; for inhibition at 20 µM: read-out: Assay 1 (KRAS-SOS Interaction) activity expressed as % inhibition at 20 μM

COc1cc2nc(C)nc(N[C@H](C)c3cccc(-c4ccc(N5CCOCC5)cc4)c3)c2cc1OC [Example 79, 6,7-dimethoxy-2-methyl-N-{(1R)-1-[4′-(morpholin-4-yl)biphenyl-3-yl]ethyl}quinazolin-4-amine]
IC50 [1]: 1650 nM
IC50 [2]: 937 nM
IC50 [3]: 1550 nM

COc1cc2nc(C)nc(N[C@H](C)c3cccc(-c4cccc(N5CCOCC5)c4)c3)c2cc1OC [Example 80, 6,7-dimethoxy-2-methyl-N-{(1R)-1-[3′-(morpholin-4-yl)biphenyl-3-yl]ethyl}quinazolin-4-amine]
IC50 [1]: 1120 nM
IC50 [2]: 711 nM
IC50 [3]: 721 nM

COc1cc2nc(C)nc(N[C@H](C)c3cccc(-c4ccccc4OCc4ccccc4)c3)c2cc1OC [Example 81, N-{(1R)-1-[2′-(benzyloxy)biphenyl-3-yl]ethyl}-6,7-dimethoxy-2-methylquinazolin-4-amine]
inhibition at 20 µM [1]: 24%
inhibition at 20 µM [2]: 33%
inhibition at 20 µM [3]: 42%

COc1cc2nc(C)nc(N[C@H](C)c3cccc(-c4ccc(S(C)(=O)=O)cc4)c3)c2cc1OC [Example 82, 6,7-dimethoxy-2-methyl-N-{(1R)-1-[4′-(methylsulfonyl)biphenyl-3-yl]ethyl}quinazolin-4-amine]
IC50 [1]: 1000 nM
IC50 [2]: 857 nM
IC50 [3]: 598 nM

COc1cc2nc(C)nc(N[C@H](C)c3cccc(-c4ccccc4OC(F)(F)F)c3)c2cc1OC [Example 83, 6,7-dimethoxy-2-methyl-N-{(1R)-1-[2′-(trifluoromethoxy)biphenyl-3-yl]ethyl}quinazolin-4-amine]
IC50 [1]: 17400 nM
IC50 [2]: 7850 nM
IC50 [3]: 8500 nM

COc1cc2nc(C)nc(N[C@H](C)c3cccc(-c4cccc(OC(F)(F)F)c4)c3)c2cc1OC [Example 84, 6,7-dimethoxy-2-methyl-N-{(1R)-1-[3′-(trifluoromethoxy)biphenyl-3-yl]ethyl}quinazolin-4-amine]
IC50 [1]: 11000 nM
IC50 [2]: 7200 nM
IC50 [3]: 5330 nM

COc1cc2nc(C)nc(N[C@H](C)c3cccc(-c4ccc5[nH]ccc5c4)c3)c2cc1OC [Example 85, N-{(1R)-1-[3-(1H-indol-5-yl)phenyl]ethyl}-6,7-dimethoxy-2-methylquinazolin-4-amine]
IC50 [1]: 1260 nM
IC50 [2]: 756 nM
IC50 [3]: 687 nM

COc1cc2nc(C)nc(N[C@H](C)c3cccc(-c4ccoc4)c3)c2cc1OC [Example 86, N-{(1R)-1-[3-(furan-3-yl)phenyl]ethyl}-6,7-dimethoxy-2-methylquinazolin-4-amine]
IC50 [1]: 693 nM
IC50 [2]: 935 nM
IC50 [3]: 581 nM

COc1cc2nc(C)nc(N[C@H](C)c3cccc(-c4csc5ccccc45)c3)c2cc1OC [Example 87, N-{(1R)-1-[3-(1-benzothiophen-3-yl)phenyl]ethyl}-6,7-dimethoxy-2-methylquinazolin-4-amine]
IC50 [1]: 7420 nM
IC50 [2]: 3460 nM
IC50 [3]: 4420 nM

COc1cc2nc(C)nc(N[C@H](C)c3cccc(-c4cc5ccccc5n4C)c3)c2cc1OC [Example 88, 6,7-dimethoxy-2-methyl-N-{(1R)-1-[3-(1-methyl-1H-indol-2-yl)phenyl]ethyl}quinazolin-4-amine]
IC50 [1]: 6180 nM
IC50 [2]: 2560 nM
IC50 [3]: 3560 nM

CCC/C=C/c1cccc([C@@H](C)Nc2nc(C)nc3cc(OC)c(OC)cc23)c1 [Example 89, 6,7-dimethoxy-2-methyl-N-[(1R)-1-{3-[(1E)-pent-1-en-1-yl]phenyl}ethyl]quinazolin-4-amine]
IC50 [1]: 4260 nM
IC50 [2]: 2680 nM
IC50 [3]: 1680 nM

COc1cc2nc(C)nc(N[C@H](C)c3cccc(/C=C/C4CCCCC4)c3)c2cc1OC [Example 90, N-[(1R)-1-{3-[(E)-2-cyclohexylethenyl]phenyl}ethyl]-6,7-dimethoxy-2-methylquinazolin-4-amine]
inhibition at 20 µM [1]: 33%
inhibition at 20 µM [2]: 46%
IC50 [3]: 11000 nM

COc1cc2nc(C)nc(N[C@H](C)c3cccc(-c4ccccc4Oc4ccccc4)c3)c2cc1OC [Example 91, 6,7-dimethoxy-2-methyl-N-[(1R)-1-(2′-phenoxybiphenyl-3-yl)ethyl]quinazolin-4-amine]
inhibition at 20 µM [1]: 38%
inhibition at 20 µM [2]: 36%
IC50 [3]: 15000 nM

COc1cc2nc(C)nc(N[C@H](C)c3cccc(-c4ccc(NC(=O)OC(C)(C)C)cc4)c3)c2cc1OC [Example 92, tert-butyl (3′-{(1R)-1-[(6,7-dimethoxy-2-methylquinazolin-4-yl)amino]ethyl}biphenyl-4-yl)carbamate]
IC50 [1]: 9260 nM
IC50 [2]: 3670 nM
IC50 [3]: 4700 nM

COc1cc2nc(C)nc(N[C@H](C)c3cccc(-c4cccc(/C=C/C#N)c4)c3)c2cc1OC [Example 93, (2E)-3-(3′-{(1R)-1-[(6,7-dimethoxy-2-methylquinazolin-4-yl)amino]ethyl}biphenyl-3-yl)prop-2-enenitrile]
IC50 [1]: 2890 nM
IC50 [2]: 1580 nM
IC50 [3]: 1850 nM

COc1cc2nc(C)nc(N[C@H](C)c3cccc(-c4ccc(C)cc4C)c3)c2cc1OC [Example 94, N-[{1R)-1-(2′,4′-dimethylbiphenyl-3-yl)ethyl]-6,7-dimethoxy-2-methylquinazolin-4-amine]
IC50 [1]: 4280 nM
IC50 [2]: 3140 nM
IC50 [3]: 2420 nM

COc1cc2nc(C)nc(N[C@H](C)c3cccc(-c4ccc(C(C)=O)s4)c3)c2cc1OC [Example 95, 1-[5-(3-{(1R)-1-[(6,7-dimethoxy-2-methylquinazolin-4-yl)amino]ethyl}phenyl)thiophen-2-yl]ethanone]
IC50 [1]: 1080 nM
IC50 [2]: 473 nM
IC50 [3]: 801 nM

COc1cc2nc(C)nc(N[C@H](C)c3cccc(-c4ccc5c(c4)OCO5)c3)c2cc1OC [Example 96, N-{(1R)-1-[3-(1,3-benzodioxol-5-yl)phenyl]ethyl}-6,7-dimethoxy-2-methylquinazolin-4-amine]
IC50 [1]: 1390 nM
IC50 [2]: 1090 nM
IC50 [3]: 1040 nM

COc1cc2nc(C)nc(N[C@H](C)c3cccc(-c4ccc(OCc5ccccc5)cc4)c3)c2cc1OC [Example 97, N-{(1R)-1-[4′-(benzyloxy)biphenyl-3-yl]ethyl}-6,7-dimethoxy-2-methylquinazolin-4-amine]
inhibition at 20 µM [1]: 38%
inhibition at 20 µM [2]: 28%
inhibition at 20 µM [3]: 39%

COc1cccc(-c2cccc([C@@H](C)Nc3nc(C)nc4cc(OC)c(OC)cc34)c2)c1 [Example 99, 6,7-dimethoxy-N-[(1R)-1-(3′-methoxybiphenyl-3-yl)ethyl]-2-methylquinazolin-4-amine]
IC50 [1]: 2630 nM
IC50 [2]: 1420 nM
IC50 [3]: 2180 nM

COc1cc2nc(C)nc(N[C@H](C)c3cccc(-c4cccc(C(F)(F)F)c4)c3)c2cc1OC [Example 100, 6,7-dimethoxy-2-methyl-N-{(1R)-1-[3′-(trifluoromethyl)biphenyl-3-yl]ethyl}quinazolin-4-amine]
IC50 [1]: 8520 nM
IC50 [2]: 4510 nM
IC50 [3]: 5350 nM

COc1cc2nc(C)nc(N[C@H](C)c3cccc(-c4ccccc4S(=O)(=O)N(C)C)c3)c2cc1OC [Example 101, 3′-{(1R)-1-[(6,7-dimethoxy-2-methylquinazolin-4-yl)amino]ethyl}-N,N-dimethylbiphenyl-2-sulfonamide]
IC50 [1]: 1800 nM
IC50 [2]: 897 nM
IC50 [3]: 715 nM
